These results are taken from patent US20070142433A1, “Angiogenesis-affecting compounds and methods of use thereof” (priority 2004, published 2007).

Counter-ions that a name gives are not always drawn.

The subject of assay [1] is Endothelial cells, Fibroblast, Alexander cells. Briefly: Viability of cells (Endothelial cells, Fibroblast, Alexander cells). It is filed as cell-based.
Assay [2] concerns RENCA. Briefly: Cell proliferation assay (crystal violet), RENCA. The assay is classed as cell-based. The conditions noted are these: 72 hours, OD 595 nm. How it is done:
(§1) In order to further confirm the surprising results described above, the compounds were tested in a cell proliferation assay. Crystal violet was used to measure cell proliferation; this basic dye stains cell nuclei and provides a sensitive, rapid evaluation. Light absorption of unstained or destained cell layers is negligible, making it possible to perform cell number measurements in wells. Six cell types (HUVEC, HDMEC, SMC, Fibroblast, A375 and RENCA) were plated and treated with the compounds in a log2 titration for 72 hours. The optimal cell number for each cell type was determined and optical density (OD) was measured at 595 nm. Each data point was measured in quadruplicate. The assay was stopped after 72 hours and subsequently analyzed. The OD-value of the plated cells before addition of the compounds was subtracted from all OD-values obtained after treatment. The percentage in relation to control proliferation was then calculated. Negative values therefore represent a count of fewer cells than were plated. The IC50 is given below in Table 1. Results are shown as a percentage in relation to the control proliferation. The IC50 were calculated using GraphPad Prism software (GraphPad Software, Inc.). Perhexiline results are depicted graphically in FIGS. 4A-4C and Erythromycin results in FIGS. 5A-5C.

Assay [3] concerns HDMEC. Briefly: Cell proliferation assay (crystal violet), HDMEC. The settings on record: 72 hours, OD 595 nm. The assay is classed as cell-based. How it is done:
as §1

Assay [4] has as its system Fibroblast. Briefly: Cytoviability assay (resazurin), Fibroblast. It is filed as cell-based. The conditions noted are these: 24 hours after treatment, read-out: IC50 cell viability Fibroblast. How it is done: (§2) A cell viability assay based on cellular reduction of resazurin to the fluorescent product resorufin was performed. Viable cells can metabolize and reduce the dye, whereas dead cells rapidly lose the capacity to do so, making the increase in fluorescence directly proportional to the number of viable cells. The tested compounds were added in a log2 titration and viable cells were analyzed 24 hours after treatment. The fluorescence was determined at an excitation wavelength of 560 nm and an emission wavelength of 590 nm. The percentage of viable cells in relation to the untreated control proliferation was calculated. […] Perhexiline results are depicted graphically in FIGS. 6A-6C and Erythromycin results in FIGS. 7A-7C.

Assay [5] deals with Fibroblast. Briefly: Cell proliferation assay (crystal violet), Fibroblast. The assay is classed as cell-based. The conditions noted are these: 72 hours, OD 595 nm. The protocol:
as §1

Assay [6] deals with HUVEC. Briefly: Cytoviability assay (resazurin), HUVEC. The assay is classed as cell-based. The conditions noted are these: Homo sapiens, 24 hours after treatment, read-out: IC50 cell viability HUVEC. The protocol:
as §2

For assay [7], the system named is B16F10 cells. Briefly: Cell viability of B16F10 cells. The assay is classed as cell-based. The settings on record: Mus musculus, B16-F10; after 24 and 48 hours incubation. The protocol: as §2
Through the two aforementioned assays it was determined that RENCA cells are more sensitive when treated with Perhexiline than the other cell types in the proliferation assay and in the viability assay. Therefore, the B16F10 cells were subsequently tested. The B16F10 tumor model, like the RENCA model, is an orthotopic tumor model.

Assay [8] relates to HUVEC sprouting. Briefly: Primary angiogenesis screen, HUVEC spheroid evaluation (EC sprouting). It is filed as cell-based, human. The conditions noted are these: HUVEC spheroids in collagen gel, VEGF-supplemented, 24 hours. The protocol:
A test substance was selected for evaluation in angiogenesis screens. The test substance was synthesized or obtained as appropriate and stored at −20° C. in DMSO. Prior to use, the test substance was thawed and 5 mM of the substance was diluted to a 10 fold concentrated working solution (100 μM) in endothelial cell basal medium. The basal medium fraction was supplemented with 25 ng VEGF/100 μl for the stimulation of HUVEC sprouting.
The screening procedures were modified versions of those described by Korff and Augustin (J Cell Sci 112: 3249-58, 1999). By way of summary, spheroids were prepared by pipetting 400 human umbilical vein endothelial cells (HUVEC) into each well of nonadhesive 96-well plates. Prior to use the HUVEC were cultured according to the supplier's instructions (PromoCell, Heidelberg, Germany). The cells were allowed to aggregate overnight into spheroids (Korff and Augustin: J Cell Biol 143: 1341-52, 1998). After aggregation, 48 HUVEC spheriods were harvested. Each harvested spheroid was seeded in 900 μl of methocel-collagen solution and pipetted into an individual well of a 24-well plate to allow collagen gel polymerization.
Thirty (30) minutes after seeding, the test substance was added. The working dilution (10 fold concentration) was utilized, 100 μl was pipetted on top of the polymerized collagen gel in each well. The plates were then incubated at 37° C. for 24 hours. At the end of the incubation period the plates were fixed by adding 1 ml paraformaldehyde (10%) to each well.
The HUVEC spheriods were microscopically assayed for endothelial cell (EC) sprouting intensity. The degree of EC sprouting was classified into one of four groups by comparing the degree of sprouting to that observed in VEGF control cells. […] For exemplary results, see FIG. 1.

As to `C1CCC(C(CC2CCCCN2)C2CCCCC2)CC1` (centres unmarked) [Perhexiline, Perhexiline maleate], the IC50 is about 10 µM in assay [1]; 7.6 µM in assay [2]; 11 µM in assay [3]; 5.2 µM in assay [4]; 12 µM in assay [5]; 8.4 µM in assay [6]. In assay [7], this compound returned an IC50 of 10 µM. In assay [8], the “EC sprouting intensity compared with VEGF control” value is on record as “sprouting inhibition”.
